According to patent US20020157138A1, “Transformation and regeneration of sunflower cotyledons” (priority 2001, published 2002):

Experiments:
sunflower cotyledons = experiment: Assessment of selection agents (GUS assay of transformed cotyledons and shoots); format: cell-based, Helianthus annuus L.; details: glyphosate 0.05->0.1->0.05 mM, paromomycin 25->50->25 mg/L, kanamycin 50 mg/L; for GUS Positive/Total cotyledons assayed: destructive GUS assays at different stages
Experimental: After the post-transformation delay, the transformed cotyledons were transferred through a series of selection cultures containing low-high-low concentrations of selective agent. The cotyledons were first placed in Selection media (see Table 1) containing 0.05 mM glyphosate for about 10 days. Plates were incubated at 23° C., low light, and 18/6 hour photoperiod. The cotyledons were then transferred to a second selection culture containing Selection media +0.1 mM glyphosate for about 2 additional weeks. Finally, the cotyledons were placed in a third selection culture containing Selection media +0.05 mM glyphosate for about 7 to 14 days. In addition to glyphosate, several other selection agents were tested (Table 4).

SFB193 and SFB216 = experiment: Glyphosate spray of plants from R2 seeds at V4 and V8 stages; format: in vivo, sunflower; details: 32 and 64 oz/acre; V4 and V8 stages of plant development
Experimental: Transgenic R1 sunflower plants (from strain HA300B), transformed with pWRG4750, were transformed and regenerated as described in Examples 5-9 and tested in greenhouse. About 5000 R2 seeds of two independent transformants, SFB193 and SFB216, were planted. Some plants were sprayed with Glyphosate at V-4 and V-8 leaf stages at 0 and 32 oz/acre level. For the other plants, glyphosate treatment rates, at V4 stage were 0-, 32-, or 64 oz./acre. The sunflower plants were assessed for resistance to glyphosate.

SFB193 = experiment: Glyphosate spray in greenhouse, transgenic sunflower; format: in vivo
Experimental: (§1) Transgenic R1 sunflower plants (from strain HA300B), transformed with pWRG4750, were transformed and regenerated as described in Examples 5-9 and tested in greenhouse. About 5000 R2 seeds of two independent transformants, SFB193 and SFB216, were planted. […] […] The sunflower plants were assessed for resistance to glyphosate.
(§2) In addition, the glyphosate-treated transgenic plants were scored for normal head development.

SFB216 = experiment: as above; format: in vivo
Experimental: Transgenic R1 sunflower plants (from strain HA300B), transformed with pWRG4750, were transformed and regenerated as described in Examples 5-9 and tested in greenhouse. About 5000 R2 seeds of two independent transformants, SFB193 and SFB216, were planted. Some plants were sprayed with Glyphosate at V-4 and V-8 leaf stages at 0 and 32 oz/acre level. […] The sunflower plants were assessed for resistance to glyphosate.
as §2

HA300B (Control) = experiment: Glyphosate spray in greenhouse, non-transgenic control; format: in vivo, sunflower; details: for Tolerance to glyphosate spray: greenhouse, about v6 to v10 leaf stage
Experimental: as §1, §2

| SMILES | GUS Positive/Total cotyledons assayed (sunflower cotyledons) | GUS Positive Shoots (sunflower cotyledons) | Vegetative tolerance to glyphosate spray (SFB193 and SFB216) | Normal Sunflower Heads After Treatment With Glyphosate (SFB193; 32 oz./acre) | Normal Sunflower Heads After Treatment With Glyphosate (SFB193; 64 oz./acre) | Normal Sunflower Heads After Treatment With Glyphosate (SFB193; 96 oz./acre) | Normal Sunflower Heads After Treatment With Glyphosate (SFB193; 128 oz./acre) | Normal Sunflower Heads After Treatment With Glyphosate (SFB216; 32 oz./acre) | Normal Sunflower Heads After Treatment With Glyphosate (SFB216; 64 oz./acre) | Normal Sunflower Heads After Treatment With Glyphosate (SFB216; 96 oz./acre) | Normal Sunflower Heads After Treatment With Glyphosate (SFB216; 128 oz./acre) | Normal Sunflower Heads After Treatment With Glyphosate (HA300B (Control); 32 oz./acre) | Tolerance to glyphosate spray (HA300B (Control); 32 oz./acre) | Normal Sunflower Heads After Treatment With Glyphosate (HA300B (Control); 64 oz./acre) | Tolerance to glyphosate spray (HA300B (Control); 64 oz./acre) | Normal Sunflower Heads After Treatment With Glyphosate (HA300B (Control); 96 oz./acre) | Normal Sunflower Heads After Treatment With Glyphosate (HA300B (Control); 128 oz./acre) |
| --- | --- | --- | --- | --- | --- | --- | --- | --- | --- | --- | --- | --- | --- | --- | --- | --- | --- |
| NC[C@H]1O[C@H](O[C@H]2[C@H](O)[C@@H](O[C@H]3O[C@H](CO)[C@@H](O)[C@H](N)[C@H]3O)[C@H](N)C[C@@H]2N)[C@H](O)[C@@H](O)[C@@H]1O [Kanamycin] | 59/64 | 16 |  |  |  |  |  |  |  |  |  |  |  |  |  |  |  |
| NC[C@@H]1O[C@H](O[C@H]2[C@@H](O)[C@H](O[C@@H]3[C@@H](O)[C@H](N)C[C@H](N)[C@H]3O[C@H]3O[C@H](CO)[C@@H](O)[C@H](O)[C@H]3N)O[C@@H]2CO)[C@H](N)[C@@H](O)[C@@H]1O [Paromomycin] | 15/30 | 7 |  |  |  |  |  |  |  |  |  |  |  |  |  |  |  |
| O=C(O)CNCP(=O)(O)O [Glyphosate] | 63/80 | 7 | excellent vegetative tolerance | 56% | 79% | 50% | 25% | 70% | 32% | 14% | 0% | 0% | No Tolerance | 0% | No Tolerance | 0% | 0% |
